The first test relates to human acute myeloid leukemia MV4; 11. Put plainly: MV4;11 cell proliferation inhibitory activity (CellTiter 96 Aqueous One). The format is cell-based. Particulars: 72 h, MV4;11 cells, cultured 3 days, read-out: cell proliferation inhibitory rate. How it is done:
The human acute myeloid leukemia MV4; 11 cell proliferation inhibitory activity of compound (I) of the present invention was evaluated by the following method.
A cell suspension (100 μL, 10,000 cells/well) of human acute myeloid leukemia MV4; 11 (purchased from American Type Culture Collection) was seeded on a 96 well plate and cultured in a 5% carbon dioxide gas incubator at 37° C. for one day. After the above-mentioned culture, each test compound (compound (I)) was added to a concentration of 1 μM and the mixture was further cultured for 3 days. After the above-mentioned culture, 40 μL of CellTiter 96 (registered trade mark) Aqueous One Solution Cell Proliferation Assay (Promega KK) was added to the 96 well-plate, the mixture was reacted for 3 hr, and the absorbance (490 nm) was measured by a plate reader.
Using the absorbance of the test compound non-addition well as a control and the absorbance of the cell non-seeded well as a blank, the cell proliferation inhibitory rate was determined at 1 μM of each test compound.
As to `NC(=O)c1ccc([N+](=O)[O-])c(Nc2ccc(N3CC(OCCO)C3)cc2)c1` [Compound 5, 3-{4-[3-(2-hydroxyethoxy)azetidin-1-yl]phenylamino}-4-nitrobenzamide], the inhibition at 1 µM is at least 50%.

On to `CC(=O)c1ccc(C(N)=O)cc1Oc1ccc(N2CC(OCCO)C2)cc1` [Compound 28, 4-acetyl-3-{4-[3-(2-hydroxyethoxy)azetidin-1-yl]phenoxy}benzamide], for which the inhibition at 1 µM was at least 50%.

`CC(=O)c1ccc(C(N)=O)cc1Oc1ccc(OCCOC2CCOCC2)cc1` [Compound 32, 4-acetyl-3-{4-[2-(tetrahydropyran-4-yloxy)ethoxy]phenoxy}benzamide]: the inhibition at 1 µM is at least 50%.

For `CC(=O)c1ccc(C(N)=O)cc1Oc1ccc(OCCOCCOC(C)C)cc1` [Compound 33, 4-acetyl-3-{4-[2-(2-isopropoxyethoxy)ethoxy]phenoxy}benzamide], the inhibition at 1 µM was at least 50%.

On to `CNC(=O)c1ccc([N+](=O)[O-])c(Nc2ccc(N3CC(OCCO)C3)cc2)c1` [Compound 48, 3-{4-[3-(2-hydroxyethoxy)azetidin-1-yl]phenylamino}-N-methyl-4-nitrobenzamide], for which the inhibition at 1 µM was at least 50%.

On to `NC(=O)c1ccc([N+](=O)[O-])c(Nc2ccc(OCCOC3CCOCC3)cc2)c1` [Compound 50, 4-nitro-3-{4-[2-(tetrahydropyran-4-yloxy)ethoxy]phenylamino}benzamide], for which the inhibition at 1 µM is at least 50%.

Take `NC(=O)c1ccc(C(F)(F)F)c(Oc2ccc(OCCOC3CCOCC3)cc2)c1` [Compound 64, 3-{4-[2-(tetrahydropyran-4-yloxy)ethoxy]phenoxy}-4-trifluoromethylbenzamide]: the inhibition at 1 µM is at least 50%.

On to `CC(=O)c1ccc(C(N)=O)cc1Oc1ccc(OCCOC2CCOC2)cc1` (stereo not shown) [Compound 67, 4-acetyl-3-{4-[2-(tetrahydrofuran-3-yloxy)ethoxy]phenoxy}benzamide], for which the inhibition at 1 µM is at least 50%.

On to `C=C(F)c1ccc(C(N)=O)cc1Oc1ccc(OCCOC2CCOCC2)cc1` [Compound 84, 4-(1-fluorovinyl)-3-{4-[2-(tetrahydropyran-4-yloxy)ethoxy]phenoxy}benzamide], for which the inhibition at 1 µM is at least 50%.

The subject of another test is 39 kinds of serine/threonine kinase. Put plainly: Off-chip Mobility Shift Assay (MSA), serine/threonine kinase panel. The format is biochemical. Particulars: test compound 1 μM; 39 kinases listed in b243 (AKT1 ... TSSK1, incl. CDK2, 3, 4, 5, 6, 7, 9). On the procedure:
The action of compound (I) of the present invention on serine/threonine kinase activity was examined by Off-chip Mobility Shift Assay (MSA). The method is shown below.
The action of a test compound (1 μM) on 39 kinds of serine/threonine kinase activity was examined. A solution of 4-fold concentration of compound 32 (5 μL) prepared by using an assay buffer (20 mM HEPES, 0.01% Triton X-100, 2 mM DTT, pH 7.5), a substrate/ATP/metal solution (5 μL) and a kinase […] solution (10 μL) were mixed in a well of a polypropylene 384 well plate and the mixture was reacted at room temperature for 1 or 5 hr. The reaction was discontinued by adding 70 μL of Termination Buffer (Carna Biosciences). The substrate peptide and phosphorylated peptide in the reaction solution were separated and quantified by LabChip System (Perkin Elmer).
The kinase reaction was evaluated based on a resultant product ratio (P/(P+S)) calculated from substrate peptide peak height (S) and phosphorylated peptide peak height (P).
With `CC(=O)c1ccc(C(N)=O)cc1Oc1ccc(OCCOC2CCOCC2)cc1` [Compound 32, 4-acetyl-3-{4-[2-(tetrahydropyran-4-yloxy)ethoxy]phenoxy}benzamide], the “action on serine/threonine kinase activity” value is recorded as “did not affect”.

A further test relates to various cancer cells.
Experiment: not given
Particulars: reported in non-patent document 3; remarkable effects on leukemia cells; cited from earlier work.
As for Cortistatin A, the “proliferation of various cancer cells” value is listed as “suppresses proliferation”.

The next test deals with T1, CDK19 (Homo sapiens, UniProt Q9BWU1).
T1 construct: purchased Carna Bioscience
T1 sequence (Q9BWU1 whole entry): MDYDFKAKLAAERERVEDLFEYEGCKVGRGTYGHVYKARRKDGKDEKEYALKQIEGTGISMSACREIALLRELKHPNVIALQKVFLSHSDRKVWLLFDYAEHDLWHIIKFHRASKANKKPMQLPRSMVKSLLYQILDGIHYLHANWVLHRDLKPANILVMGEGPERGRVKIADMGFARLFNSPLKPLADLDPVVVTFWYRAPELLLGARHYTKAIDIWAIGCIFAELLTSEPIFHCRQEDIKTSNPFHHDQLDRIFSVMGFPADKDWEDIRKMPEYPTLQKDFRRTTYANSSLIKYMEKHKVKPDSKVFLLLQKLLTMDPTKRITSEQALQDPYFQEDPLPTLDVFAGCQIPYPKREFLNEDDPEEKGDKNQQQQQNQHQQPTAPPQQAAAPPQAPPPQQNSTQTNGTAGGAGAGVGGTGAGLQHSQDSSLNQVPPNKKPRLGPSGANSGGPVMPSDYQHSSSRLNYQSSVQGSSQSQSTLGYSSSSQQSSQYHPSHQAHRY
T1 sequence (P24863 whole entry partner): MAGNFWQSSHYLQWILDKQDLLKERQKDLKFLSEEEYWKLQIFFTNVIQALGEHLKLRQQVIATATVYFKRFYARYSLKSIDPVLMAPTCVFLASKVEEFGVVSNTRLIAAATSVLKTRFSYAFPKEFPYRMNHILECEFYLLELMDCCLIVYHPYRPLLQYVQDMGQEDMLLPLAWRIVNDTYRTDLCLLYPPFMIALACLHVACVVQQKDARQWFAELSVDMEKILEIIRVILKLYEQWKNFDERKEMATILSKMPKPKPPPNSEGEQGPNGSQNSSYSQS
Put plainly: CDK19 inhibitory activity, ELISA kinase assay. The format is biochemical. Particulars: at 1 μM of test compound; read-out: CDK19 inhibitory rate. How it is done: The test compound (compound (I)) dissolved in DMSO was diluted with an assay buffer (QSS Assist STK ELISA Kit (CDK8/CycC), Carna Bioscience) to give a primary dilution solution with a DMSO concentration of 40%. The above-mentioned primary dilution solution (10 μL) was dispensed in a streptavidin-coated 96 well plate, and an assay buffer mixture (10 μL) containing 500 nM substrate (Carna Bioscience), 10 mM MgCl2 (Carna Bioscience) and 100 μM ATP (Carna Bioscience) was added. After the above-mentioned addition, 10 μL of a kinase solution was added (1 ng/μL CDK8/CycC (Carna Bioscience) diluted with assay buffer is used for measurement of CDK8 inhibitory activity and for 5 ng/μL […] (Carna Bioscience) diluted with assay buffer is used for measurement of CDK19 inhibitory activity). After the above-mentioned addition, the mixture was stood in an incubator at 24-26° C. for 30 min. […] The reaction was quenched by adding a color developing reaction termination drug (Nacalai Tesque) (100 μL) to each well, and the absorbance (450 nm) was measured by a plate reader.
Using the absorbance of the test compound non-addition well as a control and the absorbance of the enzyme non-addition well as a blank, the CDK8 and CDK19 inhibitory rate was determined at 1 μM of each test compound.
Regarding `CC(=O)c1ccc(C(N)=O)cc1Oc1ccc(OCCOC2CCOCC2)cc1` [Compound 32, 4-acetyl-3-{4-[2-(tetrahydropyran-4-yloxy)ethoxy]phenoxy}benzamide], the inhibition at 1 µM was at least 90%.

As to `C[C@@H](O)c1ccc(C(N)=O)cc1Oc1ccc(OCCOC2CCOCC2)cc1` [Compound 43], the inhibition at 1 µM is at least 90%.

Source of the values: US11013728B2, “Cyclin-dependent kinase 8 and/or 19 inhibitor” (Kyoto Pharmaceutical Industries, Ltd., priority 2017, dated 2021).
